Assay results taken from patent publication US10633669B2, “Herbicide-resistant protein, encoding gene and use thereof” (BEIJING DABEINONG TECHNOLOGY GROUP CO., LTD., priority 2015, dated 2020).

Key:
[1] = test system: Corn plants containing control nucleotide sequence (S9 and S10); experiment: Herbicide-resistance effect test of corn plants with control sequence (spray, prop root development); assay type: in vivo; conditions: 8960 g ae/ha, 21 days after spraying
Protocol: (§1) Herbicide resistance effects tests to 2,4-D dimethyl ammonium salt and agroxone of corn plants containing 24DT11 nucleotide sequence, control nucleotide sequence respectively and wild type corn plants (stages V3-V4) were performed respectively.
(§2) Corn plants containing 24DT11 nucleotide sequence, control nucleotide sequence respectively and wild type corn plants were taken and spayed with 2,4-D dimethyl ammonium salt (8960 g ae/ha, 16-folds concentration in field), agroxone (8960 g ae/ha, 16-folds concentration in field) and blank solvent (water) respectively. Prop root development was counted 21 days after spaying. Three strains (S6, S7 and S8) of corn plants transformed with 24DT11 nucleotide sequence, two strains (S9 and S10) of corn plants transformed with control nucleotide sequence and 1 strain of wild type (CK2) corn were selected and 10-15 plants from each stain were tested.

[2] = test system: wild type corn plants (CK2); experiment: Herbicide-resistance effect test of wild type corn (spray, prop root development); assay type: in vivo; conditions: wild type corn strain CK2; 8960 g ae/ha; 21 days after spraying
Protocol: as §1, §2

[3] = test system: wild type soybean plants (CK1); experiment: Herbicide-resistance effect of wild type soybean (spray, damage degree); assay type: in vivo; conditions: wild-type soybean strain CK1, 2240 g ae/ha; for Average damage % 6HAT: 6 hours after spraying; for Average damage % 2DAT: 2 days after spraying; for Average damage % 7DAT: 7 days after spraying; for Average damage % 14DAT: 14 days after spraying
Protocol: (§3) Herbicide resistance effects tests to 2,4-D dimethyl ammonium salt and agroxone of soybean plants containing 24DT11 nucleotide sequence and control nucleotide sequence respectively and wild type soybean plants (stages V3-V4) were performed respectively.
(§4) Soybean plants containing 24DT11 nucleotide sequence, control nucleotide sequence and wild type soybean plants were taken and spayed with 2,4-D dimethyl ammonium salt (2240 g ae/ha, four-folds concentration in field), agroxone (2240 g ae/ha, four-folds concentration in field) and blank solvent (water). Take statistics of the damage degree of each plant caused by herbicides according to the curling degree of leaves and the damage degree of growing point six hours ([…]), two days (2DAT), seven days (7DAT) and 14 days (14DAT) after spraying respectively: if leaves are flat like wild-type leaves and the growing point is intact, the damage degree is 0%; if leaves curl up and wilt and the growing point is died, the damage degree is 100%. There are three strains contained a transferred 24DT11 nucleotide sequence (S1, S2 and S3), two strains contained a transferred control sequence (S4 and S5) and one wild-type strain (CK1) in total; select 10˜15 plants from each strain for testing.

[4] = test system: Arabidopsis T1 plants transformed with control nucleotide sequence; experiment: Herbicide resistance effect test of Arabidopsis T1 plants with control sequence (spray); assay type: in vivo, Arabidopsis thaliana; conditions: genotype Control, 560 g ae/ha; for Moderate resistant (number of plants): curly rosette leaves 7 days after spraying; for Non-resistant (number of plants): dead 14 days after spraying; for High resistant (number of plants): growth consistent with blank solvent 7 days after spraying; for Low resistant (number of plants): incapable of bolting 14 days after spraying
Text: (§5) 24DT11 gene was used to transform Arabidopsis for the first time. At first, T1 transformants were selected from the background of un-transformed seeds, using glufosinate-ammonium selection scheme. About 20000 T1 seeds are screened among which 282 strains of T1 generation positive transformants (PAT gene) were identified, i.e. the transformation efficiency was about 1.4%. Herbicide resistance effect tests to 2,4-D dimethyl ammonium salt and agroxone of Arabidopsis T1 plants transformed with 24DT11 nucleotide sequence, control nucleotide sequence respectively and wild-type Arabidopsis plants were performed after 18 days of planting.
(§6) Arabidopsis T1 plants transformed with 24DT11 nucleotide sequence, control nucleotide sequence respectively and wild-type Arabidopsis plants were sprayed with 2,4-D dimethyl ammonium salt (560 g ae/ha, 1-fold concentration in field), agroxone (560 g ae/ha, 1-fold concentration in field) and blank solvent (water). Resistance conditions of the plants were counted 7 days and 14 days after spraying. Plants with growth conditions consistent with blank solvent (water) 7 days after spaying were classified as highly resistant plants; Plants with curly rosette leaves 7 days after spaying were classified as moderately resistant plants; Plants incapable of bolting 14 days after spaying were classified as low-resistant plants and the dead plants 14 days after spaying were classified as non-resistant plants. Because each Arabidopsis T1 plant is an independent transformation event, significant differences of individual T1 responses can be expected under a given dose.

[5] = test system: wild-type Arabidopsis plants; experiment: Herbicide resistance effect test of wild-type Arabidopsis (spray); assay type: in vivo, Arabidopsis thaliana; conditions: genotype Wild, 560 g ae/ha; for Moderate resistant (number of plants): curly rosette leaves 7 days after spraying; for Non-resistant (number of plants): dead 14 days after spraying; for High resistant (number of plants): growth consistent with blank solvent 7 days after spraying; for Low resistant (number of plants): incapable of bolting 14 days after spraying
Text: as §5, §6

[6] = test system: Corn plants containing 24DT11 nucleotide sequence (S6, S7 and S8); experiment: Herbicide-resistance effect test of transgenic corn plants (spray, prop root development); assay type: in vivo; conditions: 21 days after spraying
Protocol: as §1, §2

[7] = test system: Soybean plants containing 24DT11 nucleotide sequence (S1, S2 and S3); experiment: Herbicide-resistance effect of transgenic soybean plants (spray, damage degree); assay type: in vivo; conditions: for Average damage % 6HAT: 6 hours after spraying; for Average damage % 2DAT: 2 days after spraying; for Average damage % 7DAT: 7 days after spraying; for Average damage % 14DAT: 14 days after spraying
Protocol: as §3, §4

[8] = test system: Arabidopsis T1 plants transformed with 24DT11 nucleotide sequence; experiment: Herbicide resistance effect test of transgenic Arabidopsis T1 plants (spray); assay type: in vivo, Arabidopsis thaliana; conditions: genotype 24DT11; for High resistant (number of plants): 560 g ae/ha (1-fold field concentration), growth consistent with blank solvent 7 days after spraying; for Moderate resistant (number of plants) / Non-resistant (number of plants) / Low resistant (number of plants): 560 g ae/ha; for Moderate resistant (number of plants): curly rosette leaves 7 days after spraying; for Non-resistant (number of plants): dead 14 days after spraying; for Low resistant (number of plants): incapable of bolting 14 days after spraying
Text: as §5, §6

[9] = test system: Soybean plants containing control nucleotide sequence (S4 and S5); experiment: Herbicide-resistance effect of soybean plants with control sequence (spray, damage degree); assay type: in vivo; conditions: 2240 g ae/ha; for Average damage % 6HAT: 6 hours after spraying; for Average damage % 2DAT: 2 days after spraying; for Average damage % 7DAT: 7 days after spraying; for Average damage % 14DAT: 14 days after spraying
Protocol: as §3, §4

[10] = corn strain S9 (control sequence)
[11] = corn strain S10 (control sequence)
[12] = corn strain S6 (24DT11), 8960 g ae/ha (16-fold field)
[13] = corn strain S6 (24DT11), 8960 g ae/ha
[14] = corn strain S7 (24DT11), 8960 g ae/ha
[15] = corn strain S8 (24DT11), 8960 g ae/ha
[16] = soybean strain S1 (24DT11), 2240 g ae/ha (4-fold field)
[17] = soybean strain S1 (24DT11), 2240 g ae/ha
[18] = soybean strain S2 (24DT11), 2240 g ae/ha
[19] = soybean strain S3 (24DT11), 2240 g ae/ha
[20] = soybean strain S4 (control sequence)
[21] = soybean strain S5 (control sequence)

CNC.O=C(O)COc1ccc(Cl)cc1Cl [2,4-D dimethyl ammonium salt]
Abnormal development of brace roots (number of plants) [1, 10]: 13
Normal development of brace roots (number of plants) [1, 10]: 0
Proportion of normal development of brace roots [1, 10]: 0%
Abnormal development of brace roots (number of plants) [1, 11]: 12
Normal development of brace roots (number of plants) [1, 11]: 0
Proportion of normal development of brace roots [1, 11]: 0%
Abnormal development of brace roots (number of plants) [2]: 14
Normal development of brace roots (number of plants) [2]: 0
Proportion of normal development of brace roots [2]: 0%
Average damage % 6HAT [3]: 48%
Average damage % 2DAT [3]: 72%
Average damage % 7DAT [3]: 94%
Average damage % 14DAT [3]: 100%
Moderate resistant (number of plants) [4]: 0
Non-resistant (number of plants) [4]: 32
High resistant (number of plants) [4]: 0
Low resistant (number of plants) [4]: 0
Moderate resistant (number of plants) [5]: 0
Non-resistant (number of plants) [5]: 32
High resistant (number of plants) [5]: 0
Low resistant (number of plants) [5]: 0
Normal development of brace roots (number of plants) [6, 12]: 15
Abnormal development of brace roots (number of plants) [6, 13]: 0
Proportion of normal development of brace roots [6, 13]: 100.00%
Abnormal development of brace roots (number of plants) [6, 14]: 0
Normal development of brace roots (number of plants) [6, 14]: 13
Proportion of normal development of brace roots [6, 14]: 100.00%
Abnormal development of brace roots (number of plants) [6, 15]: 0
Normal development of brace roots (number of plants) [6, 15]: 12
Proportion of normal development of brace roots [6, 15]: 100.00%
Average damage % 6HAT [7, 16]: 7%
Average damage % 2DAT [7, 17]: 4%
Average damage % 7DAT [7, 17]: 0%
Average damage % 14DAT [7, 17]: 0%
Average damage % 6HAT [7, 18]: 5%
Average damage % 2DAT [7, 18]: 2%
Average damage % 7DAT [7, 18]: 0%
Average damage % 14DAT [7, 18]: 0%
Average damage % 6HAT [7, 19]: 13%
Average damage % 2DAT [7, 19]: 6%
Average damage % 7DAT [7, 19]: 2%
Average damage % 14DAT [7, 19]: 0%
High resistant (number of plants) [8]: 26
Moderate resistant (number of plants) [8]: 2
Non-resistant (number of plants) [8]: 3
Low resistant (number of plants) [8]: 1
Average damage % 6HAT [9, 20]: 46%
Average damage % 2DAT [9, 20]: 76%
Average damage % 7DAT [9, 20]: 96%
Average damage % 14DAT [9, 20]: 100%
Average damage % 6HAT [9, 21]: 53%
Average damage % 2DAT [9, 21]: 77%
Average damage % 7DAT [9, 21]: 91%
Average damage % 14DAT [9, 21]: 100%

Cc1cc(Cl)ccc1OCC(=O)O [agroxone]
Abnormal development of brace roots (number of plants) [1, 10]: 14
Normal development of brace roots (number of plants) [1, 10]: 0
Proportion of normal development of brace roots [1, 10]: 0%
Abnormal development of brace roots (number of plants) [1, 11]: 12
Normal development of brace roots (number of plants) [1, 11]: 0
Proportion of normal development of brace roots [1, 11]: 0%
Abnormal development of brace roots (number of plants) [2]: 15
Normal development of brace roots (number of plants) [2]: 0
Proportion of normal development of brace roots [2]: 0%
Average damage % 6HAT [3]: 34%
Average damage % 2DAT [3]: 61%
Average damage % 7DAT [3]: 82%
Average damage % 14DAT [3]: 100%
Moderate resistant (number of plants) [4]: 0
Non-resistant (number of plants) [4]: 32
High resistant (number of plants) [4]: 0
Low resistant (number of plants) [4]: 0
Moderate resistant (number of plants) [5]: 0
Non-resistant (number of plants) [5]: 32
High resistant (number of plants) [5]: 0
Low resistant (number of plants) [5]: 0
Normal development of brace roots (number of plants) [6, 12]: 11
Abnormal development of brace roots (number of plants) [6, 13]: 0
Proportion of normal development of brace roots [6, 13]: 100.00%
Abnormal development of brace roots (number of plants) [6, 14]: 0
Normal development of brace roots (number of plants) [6, 14]: 11
Proportion of normal development of brace roots [6, 14]: 100.00%
Abnormal development of brace roots (number of plants) [6, 15]: 0
Normal development of brace roots (number of plants) [6, 15]: 12
Proportion of normal development of brace roots [6, 15]: 100.00%
Average damage % 6HAT [7, 16]: 12%
Average damage % 2DAT [7, 17]: 7%
Average damage % 7DAT [7, 17]: 0%
Average damage % 14DAT [7, 17]: 0%
Average damage % 6HAT [7, 18]: 9%
Average damage % 2DAT [7, 18]: 5%
Average damage % 7DAT [7, 18]: 0%
Average damage % 14DAT [7, 18]: 0%
Average damage % 6HAT [7, 19]: 19%
Average damage % 2DAT [7, 19]: 12%
Average damage % 7DAT [7, 19]: 7%
Average damage % 14DAT [7, 19]: 4%
High resistant (number of plants) [8]: 22
Moderate resistant (number of plants) [8]: 4
Non-resistant (number of plants) [8]: 3
Low resistant (number of plants) [8]: 2
Average damage % 6HAT [9, 20]: 38%
Average damage % 2DAT [9, 20]: 69%
Average damage % 7DAT [9, 20]: 87%
Average damage % 14DAT [9, 20]: 100%
Average damage % 6HAT [9, 21]: 47%
Average damage % 2DAT [9, 21]: 74%
Average damage % 7DAT [9, 21]: 92%
Average damage % 14DAT [9, 21]: 100%
